Reference: US7015306B2 (BioSynthema, Inc., priority 1999, dated 2006)
*1 amine or outer side, *2 acyl side, *3 side chain or, on linkers, in order; H or OH if unused. Where a SMILES comes first, the peptide text is derived from it. [ ]: non-standard residue; d: D form. The star is where a group is joined. ξ: configuration not given here. Abu(1-amidino-4-piperidyl) = N=C(N)N1CCC(CC[C@H](N)C(=O)O)CC1; Ala(piperidin-4-yl) = O=C([C@H](CC1CCN([*:3])CC1)N[*:1])[*:2]; Gly(1-amidinopiperidin-4-yl) = N=C(N)N1CCC([C@H](N)C(=O)O)CC1; Ala(1-amidino-4-piperidyl) = N=C(N)N1CCC(C[C@H](N)C(=O)O)CC1; DTPA = O=C(O)CN(CCN(CC(=O)O)CC(=O)O)CCN(CC(=O)O)CC(=O)*; Phe(4-guanidino) = N=C(N)Nc1ccc(C[C@H](N)C(=O)O)cc1; ξGly(4-Pip(1-amidino)) = N=C(N)N1CCC(C(N)C(=O)O)CC1; X2 = NC[C@H]1CC[C@H](C[C@H](N[*:1])C(=O)[*:2])CC1; X1 = CC(C)C[C@@H](CN[C@@H](CC(C)C)C(N)=O)N*; X3 = CC[C@H](C)[C@@H](COC(=O)[*:2])N[*:1]; Chg = N[C@H](C(=O)O)C1CCCCC1; Tle = CC(C)(C)[C@H](N)C(=O)O; NHOH = ON*

Experiments:
[1] = In vitro serum stability assay (HPLC) of In-111 labeled peptide; assay type: in vitro ADME, human; settings: for remaining at 4 h: t = 4 h
Description: (§1) All reagents were purchased from Sigma unless otherwise noted. The peptide and ^111InCl3 in 0.05 N HCl were incubated in a sodium acetate/ascorbic acid buffer for 30 minutes at room temperature. The reaction was diluted with 5% ethanol/95% PBS before using in subsequent in vitro assays.
(§2) Human serum was purchased from Sigma (H 1388). The labeled peptide was incubated in either human serum or rat urine at 37EC for the specified amount of time. An aliquot was filtered through a 0.45 μm syringe filter prior to HPLC injection.

[2] = In vitro urine stability assay (HPLC) of In-111 labeled peptide; assay type: in vitro ADME; settings: for remaining at 4 h: rat, t = 4 h
Description: as §1, §2

[3] = human serum, 37EC, read-out: HPLC Evaluation of Serum Stability at 37EC, Serum, t = 4 h
[4] = 37EC, read-out: HPLC Evaluation of Urine Stability at 37EC, Urine, t = 4 h

| Compound | remaining at 4 h [1, 3] | remaining at 4 h [2, 4] | % of peptide at 4 hours after incubation at 37EC, Serum ([1]; human serum, 37EC, 4 hours) | % of peptide at 4 hours after incubation at 37EC, Urine ([2]; rat urine, 37EC, 4 hours) | further results |
| --- | --- | --- | --- | --- | --- |
| CC[C@H](C)[C@H](NC(=O)[C@H](Cc1ccc(O)cc1)NC(=O)[C@@H]1CCCN1C(=O)[C@H](CCCNC(=N)N)NC(=O)C(CCc1ccnc(N)n1)NC(=O)[C@@H]1CCCN1C(=O)[C@@H](CCCCN)NC(=O)CN(CCN(CCN(CC(=O)O)CC(=O)O)CC(=O)O)CC(=O)O)C(=O)N[C@@H](CC(C)C)C(=O)O (single isomer, unassigned) [In-111-DTPA-DK-P-Aba(Apy)-R-P-Y-J-L, metal not drawn] | 4.3% | 6% |  |  | HPLC Evaluation of Serum Stability at 37EC, Serum, t = 0 ([1]; human serum): 96.9%; HPLC Evaluation of Urine Stability at 37EC, Urine, t = 0 ([2]; rat urine): 95.6% |
| CC[C@H](C)[C@H](NC(=O)[C@H](Cc1ccc(O)cc1)NC(=O)[C@@H]1CCCN1C(=O)[C@H](CCCNC(=N)N)NC(=O)C(NC(=O)[C@@H]1CCCN1C(=O)[C@@H](CCCCN)NC(=O)CN(CCN(CCN(CC(=O)O)CC(=O)O)CC(=O)O)CC(=O)O)C1CCN(C(=N)N)CC1)C(=O)N[C@@H](CC(C)C)C(=O)O (single isomer, unassigned) [In-111-DTPA-DK-P-G(PipAm)-R-P-Y-I-L, metal not drawn] | 19.5% | 16.6% |  |  |  |
| CC(C)C[C@H](NC(=O)[C@@H](NC(=O)[C@H](Cc1ccc(O)cc1)NC(=O)[C@@H]1CCCN1C(=O)[C@H](CCCNC(=N)N)NC(=O)C(NC(=O)[C@@H]1CCCN1C(=O)[C@@H](CCCCN)NC(=O)CN(CCN(CCN(CC(=O)O)CC(=O)O)CC(=O)O)CC(=O)O)C1CCN(C(=N)N)CC1)C(C)(C)C)C(=O)O (single isomer, unassigned) [In-111-DTPA-DK-P-G(PipAm)-R-P-Y-tBuG-L, metal not drawn] |  |  |  |  | remaining at 4 h ([1]; Table 4, human serum, read-out: Serum Stability, Serum (t = 4 h)): 87.5%; remaining at 4 h ([2]; Table 4, rat urine, read-out: Urine Stability, Urine (t = 4 h)): 63% |
| CC[C@H](C)[C@H](NC(=O)[C@H](Cc1ccc(O)cc1)NC(=O)[C@@H]1CCCN1C(=O)C(CCc1ccnc(N)n1)NC(=O)[C@H](CCCNC(=N)N)NC(=O)[C@@H]1CCCN1C(=O)[C@@H](CCCCN)NC(=O)CN(CCN(CCN(CC(=O)O)CC(=O)O)CC(=O)O)CC(=O)O)C(=O)N[C@@H](CC(C)C)C(=O)O (single isomer, unassigned) [In-111-DTPA-DK-P-R-Aba(Apy)-P-Y-I-L, metal not drawn] | 15.7% | 4.7% |  |  | HPLC Evaluation of Serum Stability at 37EC, Serum, t = 0 ([1]; human serum): 98.1%; HPLC Evaluation of Urine Stability at 37EC, Urine, t = 0 ([2]; rat urine): 96.7% |
| CC[C@H](C)[C@H](NC(=O)[C@H](Cc1ccc(O)cc1)NC(=O)[C@@H]1CCCN1C(=O)C(Cc1ccc(NC(=N)N)cc1)NC(=O)[C@H](CCCNC(=N)N)NC(=O)[C@@H]1CCCN1C(=O)[C@@H](CCCCN)NC(=O)CN(CCN(CCN(CC(=O)O)CC(=O)O)CC(=O)O)CC(=O)O)C(=O)N[C@@H](CC(C)C)C(=O)O (single isomer, unassigned) [In-111-DTPA-DK-P-R-F(Gu)-P-Y-I-L, metal not drawn] | 16.3% | 0% |  |  | HPLC Evaluation of Serum Stability at 37EC, Serum, t = 0 ([1]; human serum): 94%; HPLC Evaluation of Urine Stability at 37EC, Urine, t = 0 ([2]; rat urine): 90.4% |
| CC(C)C[C@H](NC(=O)[C@@H](NC(=O)[C@H](Cc1ccc(O)cc1)NC(=O)[C@@H]1CCCN1C(=O)[C@H](CCCNC(=N)N)NC(=O)[C@@H](NC(=O)[C@@H]1CCCN1C(=O)[C@H](C[C@H]1CC[C@H](CN)CC1)NC(=O)CN(CCN(CCN(CC(=O)O)CC(=O)O)CC(=O)O)CC(=O)O)C1CCN(C(=N)N)CC1)C(C)(C)C)C(=O)O [Compound XII, DTPA-trans-Cha(4-CH2NH2)-Pro-Gly(PipAm)-Arg-Pro-Tyr-tBuGly-Leu-OH] ({DTPA}-[X2]P[Gly(1-amidinopiperidin-4-yl)]RPY[Tle]L-OH) |  |  | 94.8% | 89.4% |  |
| CC(C)C[C@H](NC(=O)[C@@H](NC(=O)[C@H](Cc1ccc(O)cc1)NC(=O)[C@@H]1CCCN1C(=O)[C@H](CCCNC(=N)N)NC(=O)[C@@H](NC(=O)[C@@H]1CCCN1C(=O)[C@H](CC1CCNCC1)NC(=O)CN(CCN(CCN(CC(=O)O)CC(=O)O)CC(=O)O)CC(=O)O)C1CCN(C(=N)N)CC1)C(C)(C)C)C(=O)O [DTPA-(Pip)Ala-Pro-Gly(PipAm)-Arg-Pro-Tyr-tBuGly-Leu-OH] ({DTPA}-[Ala(piperidin-4-yl)]P[Gly(1-amidinopiperidin-4-yl)]RPY[Tle]L-OH) |  |  | 98.9% | 98.3% |  |
| CC[C@H](C)[C@H](NC(=O)[C@H](Cc1ccc(O)cc1)NC(=O)[C@@H]1CCCN1C(=O)[C@H](CCCNC(=N)N)NC(=O)[C@H](CCCNC(=N)N)NC(=O)CN(CCN(CCN(CC(=O)O)CC(=O)O)CC(=O)O)CC(=O)O)C(=O)N[C@@H](CC(C)C)C(=O)O [DTPA-Arg-Arg-Pro-Tyr-Ile-Leu-OH, reference compound] |  |  | 1.6% | 13.0% | % of compound present at 4 hours in serum ([1]; human serum, 37EC, 4 hours): 1.6%; % of compound present at 4 hours in urine ([2]; rat urine, 37EC, 4 hours): 13.0% |
| CC(C)C[C@@H](CN[C@@H](CC(C)C)C(N)=O)NC(=O)[C@H](Cc1ccc(O)cc1)NC(=O)[C@@H]1CCCN1C(=O)[C@H](CCCNC(=N)N)NC(=O)[C@H](Cc1ccc(NC(=N)N)cc1)NC(=O)[C@@H]1CCCN1C(=O)[C@@H](CCCCN)NC(=O)CN(CCN(CCN(CC(=O)O)CC(=O)O)CC(=O)O)CC(=O)O [DTPA-DLys-Pro-(4-Gu)Phe-Arg-Pro-Tyr-Leu-(Ψ-CH2-NH)-Leu-OH] ({DTPA}-[dK]P[Phe(4-guanidino)]RPY-X1; C-terminus assumed) |  |  | 76.2% | 95.7% |  |
| CC(C)C[C@H](NC(=O)[C@@H](NC(=O)[C@H](Cc1ccc(O)cc1)NC(=O)[C@@H]1CCCN1C(=O)[C@H](CCCNC(=N)N)NC(=O)[C@H](CC1CCN(C(=N)N)CC1)NC(=O)[C@@H]1CCCN1C(=O)[C@@H](CCCCN)NC(=O)CN(CCN(CCN(CC(=O)O)CC(=O)O)CC(=O)O)CC(=O)O)C(C)(C)C)C(=O)O [DTPA-DLys-Pro-Ala(PipAm)-Arg-Pro-Tyr-tBuGly-Leu-OH] ({DTPA}-[dK]P[Ala(1-amidino-4-piperidyl)]RPY[Tle]L-OH) |  |  | 96.5% | 89.8% |  |
| CC(C)C[C@H](NC(=O)[C@@H](NC(=O)[C@@H](Cc1ccc(O)cc1)NC(=O)[C@@H]1CCCN1C(=O)[C@H](CCCNC(=N)N)NC(=O)C(NC(=O)[C@@H]1CCCN1C(=O)[C@@H](CCCCN)NC(=O)CN(CCN(CCN(CC(=O)O)CC(=O)O)CC(=O)O)CC(=O)O)C1CCN(C(=N)N)CC1)C(C)(C)C)C(=O)O (stereo partly drawn) [DTPA-DLys-Pro-Gly(PipAm)-Arg-Pro-DTyr-tBuGly-Leu-OH] |  |  | 98.9% | 98.3% |  |
| CC(C)C[C@H](NC(=O)[C@@H](NC(=O)[C@H](Cc1ccc(O)cc1)NC(=O)[C@@H]1CCCN1C(=O)[C@H](CCCNC(=N)N)NC(=O)C(NC(=O)[C@@H]1CCCN1C(=O)[C@@H](CCCCN)NC(=O)CN(CCN(CCN(CC(=O)O)CC(=O)O)CC(=O)O)CC(=O)O)C1CCN(C(=N)N)CC1)C1CCCCC1)C(=O)O (stereo partly drawn) [DTPA-DLys-Pro-Gly(PipAm)-Arg-Pro-Tyr-Chg-Leu-OH] ({DTPA}-[dK]P[ξGly(4-Pip(1-amidino))]RPY[Chg]L-OH) |  |  | 75.2% | 7.0% |  |
| CC[C@H](C)[C@@H](COC(=O)N[C@@H](CC(C)C)C(=O)O)NC(=O)[C@H](Cc1ccc(O)cc1)NC(=O)[C@@H]1CCCN1C(=O)[C@H](CCCNC(=N)N)NC(=O)[C@@H](NC(=O)[C@@H]1CCCN1C(=O)[C@@H](CCCCN)NC(=O)CN(CCN(CCN(CC(=O)O)CC(=O)O)CC(=O)O)CC(=O)O)C1CCN(C(=N)N)CC1 [DTPA-DLys-Pro-Gly(PipAm)-Arg-Pro-Tyr-Ile^R-OCO-Leu-OH] ({DTPA}-[dK]P[Gly(1-amidinopiperidin-4-yl)]RPY[X3]L-OH) |  |  | 94.6% | 89.8% |  |
| CC(C)C[C@H](NC(=O)[C@@H](NC(=O)[C@H](Cc1ccc(O)cc1)NC(=O)[C@@H]1CCCN1C(=O)[C@H](CCCNC(=N)N)NC(=O)C(NC(=O)[C@@H]1CCCN1C(=O)[C@@H](CCCCN)NC(=O)CN(CCN(CCN(CC(=O)O)CC(=O)O)CC(=O)O)CC(=O)O)C1CCN(C(=N)N)CC1)C(C)(C)C)C(=O)NO (stereo partly drawn) [DTPA-DLys-Pro-Gly(PipAm)-Arg-Pro-Tyr-tBuGly-Leu-HA] ({DTPA}-[dK]P[ξGly(4-Pip(1-amidino))]RPY[Tle]L-{NHOH}) |  |  | 89.2% | 60.2% |  |
| CC(C)C[C@H](NC(=O)[C@@H](NC(=O)[C@H](Cc1ccc(O)cc1)NC(=O)[C@@H]1CCCN1C(=O)[C@H](CCCNC(=N)N)NC(=O)[C@H](CCC1CCN(C(=N)N)CC1)NC(=O)[C@@H]1CCCN1C(=O)[C@@H](CCCCN)NC(=O)CN(CCN(CCN(CC(=O)O)CC(=O)O)CC(=O)O)CC(=O)O)C(C)(C)C)C(=O)O [DTPA-DLys-Pro-homoAla(PipAm)-Arg-Pro-Tyr-tBuGly-Leu-OH] ({DTPA}-[dK]P[Abu(1-amidino-4-piperidyl)]RPY[Tle]L-OH) |  |  | 84.3% | 71.3% |  |
| CC[C@H](C)[C@H](NC(=O)[C@H](Cc1ccc(O)cc1)NC(=O)[C@@H]1CCCN1C(=O)[C@H](Cc1ccc(NC(=N)N)cc1)NC(=O)[C@H](Cc1ccc(NC(=N)N)cc1)NC(=O)[C@@H]1CCCN1C(=O)[C@@H](CCCCN)NC(=O)CN(CCN(CCN(CC(=O)O)CC(=O)O)CC(=O)O)CC(=O)O)C(=O)N[C@@H](CC(C)C)C(=O)O [In-111-DTPA-DK-P-F(Gu)-F(Gu)-P-Y-I-L, metal not drawn] ({DTPA}-[dK]P[Phe(4-guanidino)][Phe(4-guanidino)]PYIL-OH; C-terminus assumed) | 25.2% | 2.3% |  |  | HPLC Evaluation of Serum Stability at 37EC, Serum, t = 0 ([1]; human serum): 99.0%; HPLC Evaluation of Urine Stability at 37EC, Urine, t = 0 ([2]; rat urine): 92.3% |
